Source: BindingDB's records for doi:10.7270/Q23B5XSC (Nmmlsc, 2012)

molecular target: C-C chemokine receptor type 5 (Homo sapiens, UniProt P51681)
Sequence (P51681 whole entry): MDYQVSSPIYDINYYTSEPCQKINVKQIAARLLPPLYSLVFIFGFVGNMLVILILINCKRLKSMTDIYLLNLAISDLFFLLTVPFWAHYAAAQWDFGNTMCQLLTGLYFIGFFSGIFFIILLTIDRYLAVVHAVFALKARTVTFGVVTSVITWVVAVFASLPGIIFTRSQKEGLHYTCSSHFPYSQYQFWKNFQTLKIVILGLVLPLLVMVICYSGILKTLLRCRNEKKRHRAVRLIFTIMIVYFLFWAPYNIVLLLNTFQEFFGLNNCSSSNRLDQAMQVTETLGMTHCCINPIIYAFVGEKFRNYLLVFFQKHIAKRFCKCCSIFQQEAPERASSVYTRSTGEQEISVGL

EC50 [nM]	SMILES
123	CCOC(=O)c1ccc(NC(=O)Cn2nnc(-c3ccccc3)n2)cc1 [SMR000021419]
188	CCOC(=O)c1ccc(NC(=O)COc2ccc(S(=O)(=O)N3CCCC3)cc2)cc1 [SMR000124597]
7.46	CN(CC(=O)N1CCN(c2ccccn2)CC1)S(=O)(=O)c1ccc(Cl)cc1
19.6	CC(=O)Nc1ccc(S(=O)(=O)NCCc2csc(-c3cccnc3)n2)cc1
